Experiment [1] deals with T1, D2/D3 receptors (Macaca mulatta, UniProt F7CYH8). The following applies: for Peak CBV: putamen ROI, animal M1. The protocol: (§1) Two animals (male rhesus macaques: M1 (8 years) and M2 (6 years)) underwent PET/MR imaging. For each study, the animal was anesthetized, initially with 10 mg/kg ketamine and 0.5 mg/kg xylazene, and maintained with isoflurane (1%, mixed with oxygen) after intubation.
(§2) [^11C]Raclopride was injected using a bolus+infusion protocol. […] Boluses were administered by hand over a duration of 30 seconds, after which infusion at a rate of 0.01 ml/s was started with an automatic pump (Medrad Spectra Solaris). Specific activities at time of injection were 3.7±2.8 mCi/nmol. […] Experiments and repeated administration of pharmacological challenges in all NHPs were separated by at least 2 weeks, so that results were not influenced from prior history. […] Additionally, the D2 antagonist prochlorperazine was injected at doses 0.1 and 0.2 mg/kg in animal M2 to serve as a direct comparison to the agonists, and to investigate whether the temporal relationship between occupancy and function that was reported for the short-acting antagonist raclopride (10) was maintained for an antagonist with much longer duration of action.
(§3) Simultaneous PET and MR data were acquired on a prototype scanner that includes a BrainPET insert and a Tim Trio 3T MR scanner (Siemens AG, Healthcare Sector, Erlangen Germany). A custom-built tight-fitting PET compatible 8-channel NHP receive array (34) together with a vendor-supplied local circularly polarized transmit coil was used for MR imaging.
The phased array enabled 2-fold acceleration with GRAPPA (35) in the anterior-posterior direction. […] To improve fMRI detection power, ferumoxytol (Feraheme, AMAG Pharmaceuticals, Cambridge Mass.) was injected at 10 mg/kg prior to fMRI (36).
(§4) PET and MR data were registered to the Saleem-Logothetis stereotaxic space (38) with an affine transformation (12 degrees of freedom) using a multi-subject MRI template (39), in which standard regions of interest (ROI) were defined based on anatomy. Alignment of the EPI data used an affine transformation plus local distortion fields. After motion-correcting using AFNI software (40), and after spatially smoothing fMRI data with a 2.5 mm Gaussian kernel, statistical analysis was carried out using the general linear model (GLM). The temporal response to the drug injection was modeled with a gamma-variate function, in which the time-to-peak was adjusted to minimize the χ^2/DOF of the GLM fit to the data. […] Additionally, regressors that correspond to translations in three dimensions and were derived from motion correction were used in the GLM analysis. The resulting signal changes were then converted to percentage changes in CBV by standard methods (41).

Experiment [2] concerns the target T1, D2/D3 receptors. Conditions: for DBPND^peak / Peak Occ. θ^peak / BP^(0): putamen ROI, animal M1; for BP^(0): baseline [11C]raclopride binding potential. The protocol:
as §1, §2, §3
PET emission data were acquired in list-mode format for 100 min starting with radiotracer injection. Images were reconstructed with a 3D Poisson ordered-subset expectation maximization algorithm using prompt and variance-reduced random coincidence events. Normalization, scatter and attenuation sinograms (including attenuation of the radiofrequency coil) were included in the reconstruction (37). […] Framing intervals were 10×30 sec, followed by 1 min frames.
as §4
PET kinetic modeling employed a general linear model formulation of the simplified reference tissue model (SRTM) (14), with cerebellum as the reference ROI, and the rate constant (k2) for cerebellum derived from the high-binding region putamen using a 2-parameter SRTM model (42).

For the next experiment, the system named is D2/D3. Conditions: reported (ref 19); cited from earlier work.
Experiment [3] deals with T1, D2/D3 receptors. The following applies: mean±std over doses; model fit to experimental data.
Description: The process of receptor desensitization and internalization can be considered in a dynamic occupancy model. In an example of a dynamic occupancy model, the following are assumed: • i. The externalization constant kext is very long, and is thus negligible for timescales <2 h. • ii. Once internalized, receptors can be bound with an affinity α by the PET radiotracer. […] The rate to convert desensitized to internalized receptors is negligible with respect to the relevant experimental timescales.
The concentrations of the free ligand and free DA can both be normalized to the baseline DA occupancy at time zero, such that f describes the fraction of free concentration (relative to baseline DA). The parameter θint describes the fraction of internalized receptors and kDI denotes the desensitization and internalization rate constant. The above equations, plus the measurement models for PET and fMRI are a full description of the RDI model employed in this study for simulation and parameter estimation.
The RDI model was used to generate a family of CBV curves for RDI rates in the range of 1 min to 30 min. An estimate of the RDI constant for each dataset was then achieved by minimizing the residual norm between the model and data after drug injection.
In a further experiment the target is D2. The following applies: cited from earlier work.
A further experiment deals with D3. The following applies: cited from earlier work.

pKd: −log10 of the molar value. Read-outs that look alike come from different tables or passages of the source.

By pKd is commonly meant the Kd on a negative log10 scale, so that one unit is a factor of ten.

T1 sequence (F7CYH8 1-443): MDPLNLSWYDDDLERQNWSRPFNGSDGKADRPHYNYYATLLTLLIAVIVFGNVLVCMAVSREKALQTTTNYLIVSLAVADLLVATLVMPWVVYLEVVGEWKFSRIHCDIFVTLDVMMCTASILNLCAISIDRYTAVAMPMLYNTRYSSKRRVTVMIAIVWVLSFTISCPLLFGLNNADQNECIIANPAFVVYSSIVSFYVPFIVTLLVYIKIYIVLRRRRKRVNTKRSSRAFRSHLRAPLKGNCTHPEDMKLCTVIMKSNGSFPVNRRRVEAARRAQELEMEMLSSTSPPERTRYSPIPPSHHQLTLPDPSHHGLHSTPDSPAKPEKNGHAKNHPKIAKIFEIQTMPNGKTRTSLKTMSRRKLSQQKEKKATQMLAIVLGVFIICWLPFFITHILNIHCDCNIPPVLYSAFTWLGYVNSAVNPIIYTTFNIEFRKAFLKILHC

On to `CN1CCN(CCCN2c3ccccc3Sc3ccc(Cl)cc32)CC1` [prochlorperazine], for which the “CBV and occupancy timecourses compared” value on D2/D3 receptors [1] (animal M2, FIG. 4 graph (c)) was “CBV and occupancy timecourses were matched”. Also, the “CBV response peak magnitude” value at D2/D3 receptors [1] (at 88% occupancy, animal M2) turned out to be 14.4%. Also, the “occupancy at CBV peak magnitude” value on D2/D3 receptors [2] (animal M2) stood at 88%.

Take `CCCN(CCC)CCc1cccc2c1CC(=O)N2` [ropinirole]: the “CBV timecourse peak time after the injection” value came to 4.0 min at D2/D3 receptors [1] (0.1 mg/kg, animal M2) and 3.4 min at D2/D3 receptors [1] (0.3 mg/kg, animal M2). In addition, the “duration of CBV response in caudate” value on D2/D3 receptors [1] (0.1 mg/kg, animal M2) is reported as 28.5 min; on D2/D3 receptors [1] (0.3 mg/kg, animal M2) it was 25.0 min. Moreover, the “CBV^peak signal” value on D2/D3 receptors [1] (animal M2, FIG. 4 comparison of agonists) is given as −8.5%. In addition, the results for the “Peak CBV” value on D2/D3 receptors [1] (0.1 mg/kg) and at D2/D3 receptors [1] (0.3 mg/kg) were −6.6% and −9.7%, respectively. In addition, the “potency compared to quinpirole” value with D2/D3 was “about seven times less potent”. On D2/D3 receptors [3], the “1/kDI, in vivo desensitization and internalization time constant” value was determined as 8.5 ± 2.1 min. Moreover, the “time at which PET occupancy peaked” value on D2/D3 receptors [2] (animal M2, FIG. 4) came out at 17.8 min. For the same compound, the “DBPND^peak” value was found to be 4.7 on D2/D3 receptors [2] (0.1 mg/kg) and 2.9 at D2/D3 receptors [2] (0.3 mg/kg). Also, the “Peak Occ. θ^peak” value at D2/D3 receptors [2] (0.1 mg/kg) amounted to 7%; at D2/D3 receptors [2] (0.3 mg/kg), 49%. Besides, the results for the “BP^(0)” value on D2/D3 receptors [2] (0.1 mg/kg session) and at D2/D3 receptors [2] (0.3 mg/kg session) were 5.1 and 5.7, respectively. The negative logarithm of the Kd (pKd) was 6.01 at D2 and 7.21 on D3.

The values are drawn from US20170100493A1, “RECEPTOR IMAGING SYSTEMS AND RELATED METHODS” (The General Hospital Corporation, priority 2015, published 2017).
